By IC50 is commonly meant the concentration needed to halve the response being measured.

From ChEMBL document CHEMBL4359925, “Rational discovery of a highly novel and selective mTOR inhibitor” (Bioorg Med Chem Lett, 2019) come the findings set out here.

The target in test [1] is Serine/threonine-protein kinase mTOR (Homo sapiens, UniProt P42345). The test can be described thus: Inhibition of human mTOR measured after 30 mins in presence of ATP by Lanthascreen TR-FRET assay. (Time-resolved FRET reads energy transfer from a long-lived donor to a nearby acceptor.)
Test [2] concerns the target Phosphatidylinositol 4,5-bisphosphate 3-kinase catalytic subunit alpha isoform (Homo sapiens, UniProt P42336). The test can be described thus: Inhibition of PI3K alpha (unknown origin).

Chain of Phosphatidylinositol 4,5-bisphosphate 3-kinase catalytic subunit alpha isoform (P42336 whole entry, canonical isoform): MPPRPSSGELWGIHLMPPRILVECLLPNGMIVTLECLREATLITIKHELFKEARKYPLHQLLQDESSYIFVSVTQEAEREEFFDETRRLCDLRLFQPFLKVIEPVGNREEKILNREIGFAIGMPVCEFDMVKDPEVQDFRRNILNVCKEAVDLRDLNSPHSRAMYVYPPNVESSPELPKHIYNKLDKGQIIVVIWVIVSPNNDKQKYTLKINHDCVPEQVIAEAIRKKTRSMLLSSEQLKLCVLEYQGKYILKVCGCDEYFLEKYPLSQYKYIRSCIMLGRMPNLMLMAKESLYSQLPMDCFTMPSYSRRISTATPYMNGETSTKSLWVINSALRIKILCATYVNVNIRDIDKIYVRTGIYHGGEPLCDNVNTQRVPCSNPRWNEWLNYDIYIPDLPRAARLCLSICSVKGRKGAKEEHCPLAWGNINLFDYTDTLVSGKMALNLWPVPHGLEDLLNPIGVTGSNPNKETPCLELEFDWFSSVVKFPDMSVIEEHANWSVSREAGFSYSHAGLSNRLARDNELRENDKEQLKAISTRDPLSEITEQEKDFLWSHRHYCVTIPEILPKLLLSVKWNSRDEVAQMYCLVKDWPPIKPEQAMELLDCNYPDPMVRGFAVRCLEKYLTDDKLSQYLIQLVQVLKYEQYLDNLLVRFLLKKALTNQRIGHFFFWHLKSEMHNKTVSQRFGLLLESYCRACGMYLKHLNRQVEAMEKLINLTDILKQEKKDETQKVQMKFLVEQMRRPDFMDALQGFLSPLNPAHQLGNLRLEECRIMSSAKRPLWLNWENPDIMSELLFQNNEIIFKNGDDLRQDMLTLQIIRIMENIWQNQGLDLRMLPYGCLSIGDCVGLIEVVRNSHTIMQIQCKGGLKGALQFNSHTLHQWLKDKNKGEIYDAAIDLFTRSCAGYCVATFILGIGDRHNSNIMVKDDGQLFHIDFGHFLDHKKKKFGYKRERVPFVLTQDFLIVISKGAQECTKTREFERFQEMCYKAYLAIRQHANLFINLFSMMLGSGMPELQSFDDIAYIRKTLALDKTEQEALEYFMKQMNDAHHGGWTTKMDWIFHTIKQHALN

In the case of `CNC(=O)Nc1ccc(-c2ncc3c(n2)N2CCOCC2C(=O)N3CC2CC2)cc1` (centres undefined), the half-inhibitory concentration (IC50) in test [1] is 31.6 nM; in test [2], 20 nM.
With `CNC(=O)Nc1ccc(-c2ncc3c(n2)N2CCOC[C@@]2(C)C(=O)N3CC2CC2)cc1`, the IC50 in test [1] is 7.94 nM; in test [2], 79.4 nM.
